Results reported in PubChem BioAssay AID2060625 (Molecular Pharmacology Branch, DTP, NCI, 2025).
“And” between values parts separate entries of the source, which are not always exact repeats. Equal values may be shown once.

Tested on: 186277-243-T-J2-PDC spheroids with HUVEC/MSC, viability
Assay: Anticancer human tumor 186277-243-T-J2-PDC patient-derived colon adenocarcinoma cell line growth inhibition [CLK]
Conditions: for viability, T/C: stronger effect = lower value
Source text: A high-throughput screen of multi-cell type tumor spheroids was designed to identify active combinations of […] and targeted small molecules. Complex spheroids include a stromal component modeled by human endothelial cells (HUVEC) and fibroblasts modeled by human mesenchymal stem cells (MSCs). The concentration ranges selected for each drug and investigational agent were based upon clinically achievable concentrations if the clinical Cmax of the agent was known.
Compounds. The drugs and investigational agents: cirtuvivint (SM08502; NSC835563), CC-671 (NSC850746), vemurafenib (NSC761431), tapotoclax (NSC804041), sotorasib (NSC818433), adagrasib (NSC831453), MRTX-1133 (NSC836407), BAY2416964 (NSC825713), copanlisib (NSC816437), inavolisib (NSC800729), abemaciclib (NSC768073), osimertinib (NSC779217), entinostat (NSC756642), eltanexor (KPT-8602, NSC794443), venetoclax (NSC766270), ceralasertib (NSC777638), bortezomib (NSC756655), olaparib (NSC753686), talazoparib (NSC767125), alisertib (NSC759677), peposertib (NSC802822), gemcitabine (NSC613327), 5-fluorouracil (NSC19893), SN-38 (NSC673596), oxaliplatin (NSC266046), paclitaxel (NSC125973), and doxorubicin (NSC123127), were obtained from the National Cancer Institute (NCI) Developmental Therapeutics Program Chemical Repository. The FDA-approved anticancer drug set is available from the Developmental Therapeutics Program at https://dtp.cancer.gov/organization/dscb/obtaining/available plates.htm. […] The stock solutions were prepared in dimethyl sulfoxide (DMSO, Sigma-Aldrich, St. Louis, MO, cat. D2650), except for the platinum complexes which were prepared in saline (Quality Biological, Gaithersburg, MD, cat. 114-055-101), at 800-fold the tested concentration and stored at -70 degrees C prior to their use. All drugs and investigational agents were tested over a range starting from a high concentration at or near the clinical Cmax and decreasing in half-log increments. If the clinical Cmax for an agent had not been determined, the highest concentration tested was 10 microM.
Cell Culture. All cells were maintained in an incubator at 37 degrees C and 5% CO2 with 95% humidity. The PDC lines were cultured according to standard operating procedures established by the NCI PDMR. Briefly, all PDCs were thawed and cultured in Matrigel-coated flasks prepared with a working solution of 1X Ham's F-12 nutrient mix, without supplementation (Invitrogen, Waltham, MA, cat. 11765054), 100 U/mL penicillin-streptomycin (Invitrogen, cat. 15140122), and 2.5% Matrigel (Corning Inc., Corning, NY, cat. 354248) for the first three passages. The 947758-054-R-J2-PDC line was cultured in 6B/Colon 1A media, which includes advanced DMEM/F-12 (Thermo Fisher Scientific, cat. 12634028), 10 mM HEPES (Thermo Fisher Scientific, cat. 15630080), 1X GlutaMAX supplement (Thermo Fisher Scientific, cat. 35050061), 0.1 mg/mL primocin (InvivoGen, cat. ant-pm-2), 10% defined fetal bovine serum, heat inactivated (HyClone Laboratories Inc., cat. SH30070.03HI), 1.25 mM N-Acetyl-L-cysteine (Sigma-Aldrich, cat. A9165), 10 mM nicotinamide (Sigma-Aldrich, cat. N0636), 1X B-27 supplement (Thermo Fisher Scientific, cat. 17504044), 1X N-2 supplement (Thermo Fisher Scientific, cat. 17502048), and 10 microM Y-27632 dihydrochloride (Tocris Bioscience, cat. 1254). The 876862-298-R-J1-PDC was cultured in 6E media, which includes all 6B/Colon 1A media components plus 50% L-WRN conditioned media (ATCC, cat. CRL-3276), 50 ng/mL recombinant human EGF recombinant protein (hEGF; Thermo Fisher Scientific, cat. PHG0311), 10 ng/mL recombinant human fibroblast growth factor 10 (hGFG-10; PeproTech, cat. 100-26), 1 ng/mL recombinant human fibroblast growth factor 2 (hFGF-2; PeproTech, cat. 100-18B), and 1 µM prostaglandin E2 (PGE2; Tocris, cat. 2296). The 227483-062-R1-J1-PDC line was cultured in Panc media, containing all 6E components except hFGF-2, with the addition of 500 nM SB-431542 (Selleckchem, cat. S1067) and 10 nM gastrin (Tocris, cat. 3006). […]
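Also: compound exposure lasted seven days before readout.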
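For viability, T/C in this document: 100% = DMSO vehicle control wells.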

In the case of CC(C)CC(NC(=O)C(Cc1ccccc1)NC(=O)c1cnccn1)B(O)O (centres undefined), the viability, T/C (compound 0.000949 µM) is reported as 95.9% and 106%, the viability, T/C (compound 0.003 µM) is reported as 75.5% and 53.2% and the viability, T/C (compound 0.00949 µM) is reported as 0.47% and 2.37%. For the same compound, the viability, T/C (compound 0.03 µM) was 0.24% and 0.94%, the viability, T/C (compound 0.0949 µM) was 0.79% and 3.7% and the viability, T/C (compound 0.3 µM) was 0.71% and 0.52%. The IC50 (curve of compound) was 4.44 nM and 3.22 nM.
For O=c1[nH]cc(F)c(=O)[nH]1 + CNC(=O)c1ccc(Nc2nc(OC3CCCC3)c3c(-c4ccc5nc(C)oc5c4)c[nH]c3n2)c(OC)c1, the IC50 (curve of first compound, second compound 0.0316 µM) was > 10000 nM, the IC50 (curve of first compound, second compound 0.1 µM) was 5330 nM and the IC50 (curve of first compound, second compound 0.316 µM) was < 31.6 nM. For the same compound, the IC50 (curve of first compound, second compound 1 µM) was < 31.6 nM, the IC50 (curve of first compound, second compound 3.16 µM) was < 31.6 nM and the IC50 (curve of first compound, second compound 10 µM) was < 31.6 nM. For the same compound, the viability, T/C (second compound 0.0316 µM, first compound 0.0316 µM) was 97.9%, the viability, T/C (second compound 0.0316 µM, first compound 0.1 µM) was 95.6% and the viability, T/C (second compound 0.0316 µM, first compound 0.316 µM) was 109%. For the same compound, the viability, T/C (second compound 0.0316 µM, first compound 1 µM) was 102%, the viability, T/C (second compound 0.0316 µM, first compound 3.16 µM) was 86.2% and the viability, T/C (second compound 0.0316 µM, first compound 10 µM) was 56.8%. The viability, T/C (second compound 0.1 µM, first compound 0.0316 µM) was 70.6%, the viability, T/C (second compound 0.1 µM, first compound 0.1 µM) was 66.2% and the viability, T/C (second compound 0.1 µM, first compound 0.316 µM) was 64.2%. For the same compound, the viability, T/C (second compound 0.1 µM, first compound 1 µM) was 61.5%, the viability, T/C (second compound 0.1 µM, first compound 3.16 µM) was 58.1% and the viability, T/C (second compound 0.1 µM, first compound 10 µM) was 42.1%. It also gave a viability, T/C (second compound 0.316 µM, first compound 0.0316 µM) of 43.7%, a viability, T/C (second compound 0.316 µM, first compound 0.1 µM) of 43.6% and a viability, T/C (second compound 0.316 µM, first compound 0.316 µM) of 39.4%. The viability, T/C (second compound 0.316 µM, first compound 1 µM) was 41%, the viability, T/C (second compound 0.316 µM, first compound 3.16 µM) was 37.3% and the viability, T/C (second compound 0.316 µM, first compound 10 µM) was 25.6%. It also gave a viability, T/C (second compound 1 µM, first compound 0.0316 µM) of 30.9%, a viability, T/C (second compound 1 µM, first compound 0.1 µM) of 29.4% and a viability, T/C (second compound 1 µM, first compound 0.316 µM) of 28.1%. For the same compound, the viability, T/C (second compound 1 µM, first compound 1 µM) was 28.6%, the viability, T/C (second compound 1 µM, first compound 3.16 µM) was 24.9% and the viability, T/C (second compound 1 µM, first compound 10 µM) was 15%. For the same compound, the viability, T/C (second compound 3.16 µM, first compound 0.0316 µM) was 27.6%, the viability, T/C (second compound 3.16 µM, first compound 0.1 µM) was 26.9% and the viability, T/C (second compound 3.16 µM, first compound 0.316 µM) was 24.8%. For the same compound, the viability, T/C (second compound 3.16 µM, first compound 1 µM) was 28.3%, the viability, T/C (second compound 3.16 µM, first compound 3.16 µM) was 24.4% and the viability, T/C (second compound 3.16 µM, first compound 10 µM) was 12.1%. The viability, T/C (second compound 10 µM, first compound 0.0316 µM) was 30.1%, the viability, T/C (second compound 10 µM, first compound 0.1 µM) was 30.3% and the viability, T/C (second compound 10 µM, first compound 0.316 µM) was 29.4%. It also gave a viability, T/C (second compound 10 µM, first compound 1 µM) of 29.2%, a viability, T/C (second compound 10 µM, first compound 3.16 µM) of 27.6% and a viability, T/C (second compound 10 µM, first compound 10 µM) of 12%.
